Values quoted from earlier work, collected in US20110118243A1, “ANTI-INFLAMMATORY DRUG DELIVERY SYSTEM” (priority 2008, published 2011).

Settings: in horses

Plasma half-life: 5 to 6 h
SMILES: CCCCC1C(=O)N(c2ccccc2)N(c2ccccc2)C1=O [phenylbutazone, 4-butyl-diphenyl-3,5-pyrazoidinedione]
